The values below come from patent US20260007634A1, “PHARMACEUTICAL COMPOSITIONS FOR THE TREATMENT OF ALLERGIC DISEASES” (KINKI UNIVERSITY, priority 2022, published 2026).

Assay [1] concerns IL-6. The assay is described as follows: BAFF-induced IL-6 secretion in B cells (ELISA). The assay is classed as cell-based, mouse. Particulars: DBA/1J spleen B cells; 10 μM compound, 100 ng/mL BAFF, 7 days; control 26.06, BAFF only 454.47. How it is done: Spleens were harvested from 6-week-old male DBA/1J mice and B cells were isolated. After isolation, the cells were cultured in RPMI 1640 medium for 1 day. Then, 10 μM mangiferin 8a and 10 μM norathyriol were added to B cells, and 100 ng/mL of BAFF was added to each 3 h later, and the cells were cultured for 7 days. After 7 days of culture, the culture supernatant was collected and IL-6 secretion was measured by enzyme-linked immunosorbent assay (ELISA). This assay was performed using a mouse IL-6 ELISA kit (R&D).
Background: ELISA stands for enzyme-linked immunosorbent assay.

Assay [2] concerns Balb/c mice with atopic dermatitis (MC903 applied to the auricle). The experiment in a line: Auricular swelling in MC903-induced atopic dermatitis mice. The assay is classed as in vivo, mouse. As for the experimental part:
(§1) MC903 at 2 nM was applied to the right auricle of a 6-week-old male Balb/c (Japan SLC Inc.). Starting 8 h later, 5% norathyriol aqueous solution (1 mL of ethanol containing […] of norathyriol), betamethasone ointment, and delgocitinib ointment were applied to the auricle for 7 days. The measurement of auricular skin swelling was calculated by calipers. The day on which the first application of the compound was made was defined as day 0. Betamethasone and delgocitinib are currently in clinical use in atopic dermatitis and were used as control drugs in this example.
Those without MC903 or norathyriol are called the control group, those with MC903 are called the vehicle group, those with 5% norathyriol aqueous are called the 5% norathyriol-applied group, those with betamethasone ointment are called the betamethasone-applied group, and those with delgocitinib ointment is referred to as the delgocitinib-applied group.
Solid white circles indicate the control group (labeled “control”). Solid black squares indicate the vehicle group (labeled “vehicle”), dotted black diamonds indicate the 5% norathyriol aqueous application group (labeled “MC903+5% norathyriol”), dashed black crosses indicate the betamethasone application group (labeled “MC903+betamethasone ointment”), and single-dotted black dots indicate the delgocitinib application group (labeled “MC903+delgocitinib ointment”).

The subject of assay [3] is IgE antibody. The experiment in a line: Serum IgE antibody ELISA, atopic dermatitis mice. Particulars: day 7, topical application, control 1214, vehicle (MC903) 2588. The assay is classed as in vivo, mouse. As for the experimental part: as §1
Serum was collected from mice on day 7 in Example 1, and IgE antibody production was measured by enzyme-linked immunosorbent assay (ELISA). This assay was performed using a mouse IgE antibody ELISA kit (R&D).

Compound `O=c1c2cc(O)c(O)cc2oc2cc(O)cc(O)c12` [norathyriol, 1,3,6,7-tetrahydroxyxanthone] registered an IL-6 secretion in assay [1] of 61.39 pg/mL. Further, in assay [2] (male Balb/c, MC903 on right auricle, 5% norathyriol aqueous solution, betamethasone ointment or delgocitinib ointment applied to auricle for 7 days, vs vehicle group), the auricular skin swelling result is on record as “swelling was significantly reduced”. Also, the “swelling and redness of auricular skin (photograph)” value in assay [2] (right auricle at day 7, topical 5% norathyriol aqueous, betamethasone ointment, delgocitinib ointment) is “showed some redness, but not as much as in the target group”. For the same compound, in assay [3], the “amount of IgE antibody” value is listed as 1692 ng/mL.
